Assay results as given in patent publication US9468632B2, “Methods and compositions for targeting cancer stem cells” (The Regents of the University of Michigan, priority 2012, dated 2016).
Positions count from the first letter of the chain named.

Tests used:
[1] = biological target: T1, ALDH1A1 (WT) (Homo sapiens, UniProt P00352); experiment: In vitro enzymatic inhibition assay, ALDH1A1 (WT); assay type: biochemical; settings: 2 min incub
T1 sequence (P00352 1-501): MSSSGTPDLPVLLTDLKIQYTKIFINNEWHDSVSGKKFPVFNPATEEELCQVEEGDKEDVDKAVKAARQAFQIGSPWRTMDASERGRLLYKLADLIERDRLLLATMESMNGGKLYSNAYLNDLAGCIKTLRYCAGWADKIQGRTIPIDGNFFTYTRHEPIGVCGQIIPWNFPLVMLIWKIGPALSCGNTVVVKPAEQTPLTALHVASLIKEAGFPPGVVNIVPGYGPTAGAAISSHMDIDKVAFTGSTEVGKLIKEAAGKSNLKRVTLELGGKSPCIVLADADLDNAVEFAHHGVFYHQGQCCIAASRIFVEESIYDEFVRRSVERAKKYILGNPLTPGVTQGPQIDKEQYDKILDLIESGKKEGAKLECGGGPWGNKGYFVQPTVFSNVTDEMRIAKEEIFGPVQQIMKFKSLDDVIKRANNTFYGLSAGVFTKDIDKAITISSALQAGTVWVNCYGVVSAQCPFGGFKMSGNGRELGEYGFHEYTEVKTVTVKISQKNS

[2] = biological target: T2, ALDH1A1 (S121) (Homo sapiens, UniProt P00352, N121S); experiment: In vitro enzymatic inhibition assay, ALDH1A1 (S121); assay type: biochemical
T2 sequence (P00352 1-501 N121S): T1 sequence (P00352 1-501) with N121S

[3] = biological target: T3, ALDH1A2 (Homo sapiens, UniProt O94788); experiment: In vitro enzymatic inhibition assay, ALDH1A2; assay type: biochemical
T3 sequence (O94788 1-518): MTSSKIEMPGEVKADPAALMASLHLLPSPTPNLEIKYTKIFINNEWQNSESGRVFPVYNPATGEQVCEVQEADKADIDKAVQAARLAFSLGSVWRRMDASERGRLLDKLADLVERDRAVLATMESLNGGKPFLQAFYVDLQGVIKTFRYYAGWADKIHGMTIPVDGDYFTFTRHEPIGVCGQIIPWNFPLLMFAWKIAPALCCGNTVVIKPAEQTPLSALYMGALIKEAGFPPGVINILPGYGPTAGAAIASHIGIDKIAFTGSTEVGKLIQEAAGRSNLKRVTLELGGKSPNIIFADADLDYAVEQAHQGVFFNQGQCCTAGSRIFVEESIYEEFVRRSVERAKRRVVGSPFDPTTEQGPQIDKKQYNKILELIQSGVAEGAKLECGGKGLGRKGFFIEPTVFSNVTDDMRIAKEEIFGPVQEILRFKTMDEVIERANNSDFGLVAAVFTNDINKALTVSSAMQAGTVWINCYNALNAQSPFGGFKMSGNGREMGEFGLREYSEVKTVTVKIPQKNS

[4] = biological target: T4, ALDH1A3 (Homo sapiens, UniProt P47895); experiment: In vitro enzymatic inhibition assay, ALDH1A3; assay type: biochemical
T4 sequence (P47895 1-512): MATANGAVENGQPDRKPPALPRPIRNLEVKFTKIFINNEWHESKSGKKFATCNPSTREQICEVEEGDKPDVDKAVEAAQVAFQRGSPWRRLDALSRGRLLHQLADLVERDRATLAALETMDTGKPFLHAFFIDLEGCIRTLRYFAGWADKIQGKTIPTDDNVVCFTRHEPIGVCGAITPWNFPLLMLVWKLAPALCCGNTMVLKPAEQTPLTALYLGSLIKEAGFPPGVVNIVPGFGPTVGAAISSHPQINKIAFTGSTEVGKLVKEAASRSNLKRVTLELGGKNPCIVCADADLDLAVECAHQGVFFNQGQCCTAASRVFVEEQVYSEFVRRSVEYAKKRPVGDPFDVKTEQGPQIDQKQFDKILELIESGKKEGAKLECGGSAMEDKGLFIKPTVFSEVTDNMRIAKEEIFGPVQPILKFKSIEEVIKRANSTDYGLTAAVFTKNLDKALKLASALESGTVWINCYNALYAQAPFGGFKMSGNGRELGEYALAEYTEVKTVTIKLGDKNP

[5] = biological target: ALDH3A1 (Homo sapiens, UniProt P30838); experiment: In vitro enzymatic inhibition assay, ALDH3A1; assay type: biochemical
[6] = system: all the ALDH1A isoforms; experiment: In vitro enzymatic inhibition assays, text summary for ALDH1A isoforms; assay type: biochemical
[7] = system: ALDH+ cells; experiment: FACS isolated single cells in microfluidic culture, cell death; assay type: cell-based
Experimental: (§1) In order to determine if the loss of CD133 or ALDH expressing cells is due to downregulation/loss of enzyme function or due to cell death, FACS isolated CD133+ or ALDH+ cells were treated as single cells in microfluidic culture. 673 treatment was associated with the death of ˜93% of CD133+ cells and 65% death of ALDH+ cells (FIG. 1B).

[8] = system: CD133+ cells; experiment: as above; assay type: cell-based
Experimental: as §1

[9] = system: ovarian cancer cell lines including A2780, SKOV3, and OvCAR8; experiment: MTT assay, ovarian cancer cell lines; assay type: cell-based, human; settings: 72 hours, range over cell lines
Experimental: (§2) TD50 ranged from 12-50 uM.

[10] = system: A2780; experiment: MTT assay, A2780 viability; assay type: cell-based, human
Experimental: as §2

[11] = system: pancreatic cancer cell lines and breast cancer cell lines (ASPC, PANC1, MCF7); experiment: MTT toxicity screen, pancreatic and breast cancer cell lines; assay type: cell-based
Experimental: A. MTT assay of cytotoxicity of indicated compounds at increasing doses 72 hours after treatment of ovarian cancer cell. B. MTT assay for pancreatic (ASPC and PANC1) and breast cancer (MCF7) cell lines. C. MTT assays of 673 for normal cells (HOSE and MSC) and ovarian cancer (OvCAR8) controls.
as §2

[12] = system: FACS isolated CD133+A2780 cells; experiment: Tumor sphere forming assay, CD133+ A2780; assay type: cell-based, human; settings: single treatment with 10 μM
Experimental: (§3) Tumor associated ascites cells were isolated by centrifugation and treated with ACK lysis buffer (Fischer Scientific). 5000 cells were placed in each well of the 6-well ultra-low adherence plates (Corning, Acton, Mass., USA) with 3 ml of supplemented MEBM (Lonza). After 24 hours, cells were treated with either media alone or UM #673. Media was added every 3-4 days, and all tumor sphere counts were done at 2 weeks. Alternatively, sphere assays were also performed with cancer cell lines A2780 and OVCAR8. Cells in culture were trypsinized and 2000 cells were either directly placed or FACS isolated for CD133+ and CD133− cells before plating in wells of ultra-low adherence plates. Images of spheres were photographed using the Olympus Microsuite Biological suite Software.
(§4) In order to further characterize UM #673 activity targeting OvCSC, a functional CSC assay was performed. Tumor sphere forming assays were performed with both FACS isolated CD133+A2780 cells and OVCAR8 cells (a cell line with >90% CD133 expression). […] This assay was repeated using primary human ovarian cancer associated ascites cell from three patients. Treatment with 673 was associated with an average of 7.3 fold (range 4-50) reduction in the number of spheres formed (FIG. 4A).

[13] = system: OVCAR8 cells; experiment: Tumor sphere forming assay, OVCAR8; assay type: cell-based, human
Experimental: as §3, §4

[14] = system: primary human ovarian cancer associated ascites cell; experiment: Tumor sphere forming assay, primary ascites cells; assay type: cell-based; settings: three patients, range 4-50
Experimental: as §3, §4

[15] = system: in vitro treated, PI-/Annexin-FACS isolated live cells; experiment: Tumor initiation capacity of in vitro treated live cells injected into mice; assay type: in vivo
Experimental: An important functional aspect of a cancer stem cell is the ability to initiate tumors with limited cell numbers. In order to determine if UM673 could impact tumor initiation, cells were treated in vitro with a single dose of UM673 alone or in combination with cisplatin. Cells were allowed to recover for three days and then PI(−)/Annexin(−) live cells were faxed isolated and injected into mice. 200, 1000, or 5000 cells from each treatment group (n=4-10/group) were injected.

[16] = system: A2780 tumor cell xenografts; experiment: A2780 tumor cell xenografts, tumor growth; assay type: in vivo, mice; settings: unsorted A2780 cells, treatment from day 3
Experimental: (§5) 6-8 week old nude female mice were purchased from Charles River Laboratories. All xenograft experiments were performed with approval of the University Committee on Use and Care of Animals of the University of Michigan. To generate tumors, 7.5×10^4 unsorted A2780 cells or 7500 CD133+ sorted A2780 cells were combined with 100 μl of DPBS and 100 μl of Matrigel (BD Biosciences), and then implanted subcutaneously into bilateral axillae of each mouse. 3 days after inoculation with tumors, mice were given an intra-peritoneal injection of (1) control DMSO 40 μl, (2) Cisplatin 250 μg/ml, (3) UM #673 10 μM, or (4) Cisplatin plus UM #673 (n=9 mice per treatment group). Tumor growth was measured using calipers, and tumor volume was calculated based on the modified ellipsoid formula (L×W×W/2), where L is the length and W is the width of the tumor. The mice were euthanized when tumors reached 1.5 to 2 cm^3 and animal safety euthanasia guidelines were met. Intraperitoneal tumors were generated using 5×10^6 OVCAR8 in […] of PBS and injected I.P. 3 days after inoculation, mice were given intra-peritoneal injection of Cisplatin or Cisplatin plus UM #673.
The impact of UM673 as a single agent was evaluated. NOD/SCID mice were inoculated with 1×10^5 unsorted A2780 cells and treatment was initiated three days after tumor inoculation with either vehicle control or UM #673. […] This is consistent with other studies of CSC targeting agents.
The experiments were repeated in combination with cisplatin. In addition, xenografts from both whole cell line and FACS isolated CD133+ cells were treated.

[17] = system: isolated CD133+ cancer stem cells initiated tumors; experiment: CD133+ cancer stem cell initiated tumors, tumor growth; assay type: in vivo, mice; settings: single agent
Experimental: as §5
The impact of UM673 as a single agent was evaluated. NOD/SCID mice were inoculated with 1×10^5 unsorted A2780 cells and treatment was initiated three days after tumor inoculation with either vehicle control or UM #673. […]

[18] = system: primary human tumor xenografts; experiment: Primary human tumor xenografts from chemotherapy refractory ovarian cancer; assay type: in vivo, mice
Excerpt: In order to confirm in vivo activity against primary ovarian cancers, primary human tumor xenografts were generated from a patient with chemotherapy refractory ovarian cancer. Xenografts were allowed to grow until they reached ˜500 mm^3, and then treatment with either vehicle, cisplatin or cisplatin and UM 673 was initiated. […] After discontinuation of therapy, tumor regrowth was observed after approximately 4 weeks (FIG. 5D).

[19] = system: Annexin-V staining (apoptosis); experiment: PI/Annexin-V FACS analysis; assay type: cell-based
Experimental: PI/Annexin-V FACS analysis of UM673 treated cells was performed to determine if cells were undergoing apoptosis.

[20] = system: intracellular calcium; experiment: Fluorescent analysis of intra-cellular calcium; assay type: cell-based
Experimental: Programmed cell necrosis is known to be linked with decreases in cellular ATP and an increase in intracellular calcium. […] Furthermore, reduction in CD 133 positive cells with UM 673 treatment could be partially abrogated by the calcium scavenging compound BAPTA (FIG. 6E). As program cell necrosis is known to be activated via the RIP kinases, the impact of the RIP kinase inhibitor necrostatin was evaluated.

[21] = system: UCP1 and UCP3; experiment: qRT-PCR of necrosis associated genes; assay type: cell-based
Experimental: (§6) ALDH1A isoforms are the primary members of the ‘retinaldehyde’ subgroup of aldehyde dehydrogenases. Retinaldehydes play a primary role in the biosynthesis of retinoic acid and thereby regulate retinoic acid mediated transcription. Retinoic acid transcription changes in cells treated with UM673 were assayed. […] 80× induction of the mitochondrial uncoupling proteins UCP1 and UCP3 was observed (FIG. 7B).

[22] = system: Oct4, and Sox2; experiment: qRT-PCR of stem cell genes; assay type: cell-based
Experimental: as §6

[23] = system: cellular oxygen consumption; experiment: SeaHorse cellular metabolism studies; assay type: cell-based
Experimental: UCP1 and UCP3 proteins play a critical role in cellular metabolism. The impact of UM673 on cellular metabolism was evaluated.

[24] = system: mitochondrial metabolism; experiment: LCMS of cellular metabolites; assay type: cell-based
[25] = system: A2770 cells; experiment: FACS analysis of CD133 and ALDH expressing cells; assay type: cell-based
[26] = system: normal human ovarian surface epithelial cells; settings: 72 h
Experimental: (§7) 7500 of HOSE, MSC, and OVCAR8 cells were plated on a 96-well plate and rested for 24 hours. They were then treated with incremental doses of 673 for 72 hours. They were then analyzed according to the Vybrant® MTT Cell Proliferation Assay Kit (Invitrogen).
(§8) The toxicity of these compounds versus normal human ovarian surface epithelial cells and healthy adipose derived mesenchymal stem cells was assayed.

[27] = system: healthy adipose derived mesenchymal stem cells; settings: human, 72 h
Experimental: as §7, §8

Chain of ALDH3A1 (P30838 whole entry, canonical isoform): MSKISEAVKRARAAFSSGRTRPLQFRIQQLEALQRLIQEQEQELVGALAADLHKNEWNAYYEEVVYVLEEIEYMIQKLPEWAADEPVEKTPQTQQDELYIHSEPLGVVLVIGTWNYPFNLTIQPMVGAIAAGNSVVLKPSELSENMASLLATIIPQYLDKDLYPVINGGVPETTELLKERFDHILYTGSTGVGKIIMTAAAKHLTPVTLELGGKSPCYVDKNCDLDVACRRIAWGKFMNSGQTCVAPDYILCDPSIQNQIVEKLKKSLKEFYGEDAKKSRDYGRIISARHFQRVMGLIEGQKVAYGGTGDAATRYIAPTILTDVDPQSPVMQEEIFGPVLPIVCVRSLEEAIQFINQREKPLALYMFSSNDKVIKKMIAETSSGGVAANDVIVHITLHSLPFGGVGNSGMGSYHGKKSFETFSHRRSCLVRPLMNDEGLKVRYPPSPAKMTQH

Compound DEAB [reference compound] has an IC50 [1] of 519 ± 75 nM, an IC50 [2] of 1490 ± 240 nM and an IC50 [3] of over 20 µM. The IC50 [4] was over 20 µM and the IC50 [5] was over 20 µM.
With `Cc1cc(N2Cc3ccccc3C2)ccc1C=O` [UM673] the IC50 [6] was under 230 nM, the “death of ALDH+ cells” value [7] was 65% and the “death of CD133+ cells” value [8] was about 93%. The TD50 [9] was 12 to 50 µM, the “lowest dose with measurable effects on A2780 viability” value [10] was 2.5 µM and the “cytotoxicity versus bulk populations” value [11] was “variable modest cytotoxicity”. The “decrease in sphere number” value [12] was 2.6 fold, the “reduction in total cell number” value [12] was about 8 fold and the “decrease in sphere formation” value [13] was 5.6 fold. The “reduction total cell numbers” value [13] was 3 fold, the “average reduction in the number of spheres formed” value [14] was 7.3 fold and the “tumor initiation (tumors/injections)” value ([15]; 200 cells injected) was 2/4. The “tumor initiation (tumors/injections)” value ([15]; 1000 cells injected) was 4/4, the “tumor initiation (tumors/injections)” value ([15]; 5000 cells injected) was 4/5 and the “effect on tumor initiation capacity” value ([15]; compared to untreated controls) was “neither cisplatin or UM673 affected tumor initiation”. For the same compound, the tumor growth [16] was “statistically significant reduction in tumor growth”, the tumor growth ([16]; listed as UM 673) was “modest restrictions in tumor growth” and the tumor growth [17] was “Greatest activity”. For the same compound, the “time to tumor regrowth after discontinuation of therapy” value ([18]; mouse, in vivo) was “approximately 4 weeks”, the tumor growth ([18]; treatment started at ˜500 mm^3) was “prevented tumor regrowth” and the Annexin-V staining [19] was “not associated with an increase in Annexin-V staining”. The “increase in intracellular calcium” value [20] was “fourfold increase”, the “induction of the mitochondrial uncoupling proteins UCP1 and UCP3” value [21] was 80 × and the “expression of stem cell factors Oct4 and Sox2” value [22] was “down regulated”. The cellular oxygen consumption [23] was “slow and steady decline”, the levels of citrate [24] was “marked decrease” and the “loss of ALDH+ and CD133+ cells” value [25] was “reductions in not only ALDH+ cells, but also CD133+ cells”. It also gave a TD50 [26] of about 105 µM and a TD50 [27] of about 105 µM.
